ChEMBL document CHEMBL1287692, “Structure-based design, synthesis and A-site rRNA co-crystal complexes of novel amphiphilic aminoglycoside antibiotics with new binding modes: a synergistic hydrophobic effect against resistant bacteria” (2010)
Converted amounts (≈) assume the structure as drawn.

How the values were obtained:
Assay type in all cases: functional
Escherichia coli [1] = test: Antibacterial activity against Escherichia coli ATCC 25922
Staphylococcus aureus [2] = test: Antibacterial activity against Staphylococcus aureus ATCC 13709
Escherichia coli [3] = test: Antibacterial activity against Escherichia coli 0157:H07
Escherichia coli [4] = test: Antibacterial activity against vancomycin-, ciprofloxacin-, gentamicin-sensitive Escherichia coli 1269640
Escherichia coli [5] = test: Antibacterial activity against vancomycin-, ciprofloxacin-, gentamicin-resistant Escherichia coli 1269620
Escherichia coli [6] = test: Antibacterial activity against vancomycin-, ciprofloxacin-, gentamicin-resistant Escherichia coli 1269621
Escherichia coli [7] = test: Antibacterial activity against vancomycin-, ciprofloxacin-, gentamicin-resistant Escherichia coli 1269652
Escherichia coli [8] = test: Antibacterial activity against vancomycin-, ciprofloxacin-, gentamicin-resistant Escherichia coli 1269653
Staphylococcus aureus [9] = test: Antibacterial activity against Staphylococcus aureus ATCC […]
Staphylococcus aureus [10] = test: Antibacterial activity against vancomycin-, ciprofloxacin-, gentamicin-resistant Staphylococcus aureus 1269615
Staphylococcus aureus [11] = test: Antibacterial activity against vancomycin-intermediate and ciprofloxacin-, gentamicin-resistant Staphylococcus aureus 1269616
Staphylococcus aureus [12] = test: Antibacterial activity against vancomycin-, ciprofloxacin-, gentamicin-resistant Staphylococcus aureus 1269617
Staphylococcus aureus [13] = test: Antibacterial activity against vancomycin-intermediate and ciprofloxacin-, gentamicin-resistant Staphylococcus aureus 1269618
Staphylococcus aureus [14] = test: Antibacterial activity against vancomycin-sensitive and oxymycin-, ciprofloxacin-, gentamicin-resistant Staphylococcus aureus 9269619
Staphylococcus aureus [15] = test: Antibacterial activity against oxymycin-sensitive Staphylococcus aureus 1269669
Staphylococcus aureus [16] = test: Antibacterial activity against oxymycin-sensitive Staphylococcus aureus 1269670
Staphylococcus capitis = test: Antibacterial activity against Staphylococcus capitis 1269682
[17] = tested on: Staphylococcus epidermidis; test: Antibacterial activity against Staphylococcus epidermidis 1269663
[18] = tested on: Staphylococcus epidermidis; test: Antibacterial activity against oxymycin-, gentamicin-, levofloxacin-resistant Staphylococcus epidermidis 1269675
[19] = tested on: Staphylococcus epidermidis; test: Antibacterial activity against oxymycin-, gentamicin-, levofloxacin-resistant Staphylococcus epidermidis 1269676
[20] = tested on: Staphylococcus epidermidis; test: Antibacterial activity against oxymycin and gentamicin-resistant Staphylococcus epidermidis 1269677
[21] = tested on: Staphylococcus epidermidis; test: Antibacterial activity against oxymycin-, gentamicin-, levofloxacin-resistant Staphylococcus epidermidis 1269680
Staphylococcus warneri = test: Antibacterial activity against Staphylococcus warneri 1269686

Question: Which MIC (Escherichia coli [1]) does the source give for `NCC[C@H](O)C(=O)N[C@@H]1C[C@H](N)[C@@H](O[C@H]2O[C@H](CO)[C@@H](O)[C@H](O)[C@H]2N)[C@H](O[C@@H]2O[C@H](CO)[C@@H](O[C@H]3O[C@@H](CN)[C@@H](O)[C@H](O)[C@H]3N)[C@H]2O)[C@H]1O` here?
Answer: The MIC was 8 µg/mL (≈ 11.2 µM).

Question: What about the MIC (Staphylococcus aureus [2]) of the same compound?
Answer: The MIC was 1.3 µg/mL (≈ 1.81 µM).

Question: What about the MIC (Escherichia coli [3]) of the same compound?
Answer: The MIC was 8 µg/mL (≈ 11.2 µM).

Question: What about the MIC (Escherichia coli [4]) of the same compound?
Answer: The MIC was 16 µg/mL (≈ 22.3 µM).

Question: And the MIC (Escherichia coli [5])?
Answer: Its MIC is 8 µg/mL (≈ 11.2 µM).

Question: And the MIC (Escherichia coli [6])?
Answer: Its MIC is 8 µg/mL (≈ 11.2 µM).

Question: And the MIC (Escherichia coli [7])?
Answer: The MIC was 32 µg/mL (≈ 44.6 µM).

Question: What about the MIC (Escherichia coli [8]) of the same compound?
Answer: The MIC was 8 µg/mL (≈ 11.2 µM).

Question: And the MIC (Staphylococcus aureus [9])?
Answer: Its MIC is 4 µg/mL (≈ 5.58 µM).

Question: And the MIC (Staphylococcus aureus [10])?
Answer: The MIC was greater than 128 µg/mL.

Question: And the MIC (Staphylococcus aureus [11])?
Answer: The MIC was greater than 128 µg/mL.

Question: What about the MIC (Staphylococcus aureus [12]) of the same compound?
Answer: The MIC was greater than 128 µg/mL.

Question: What about the MIC (Staphylococcus aureus [13]) of the same compound?
Answer: Its MIC is greater than 128 µg/mL.

Question: And the MIC (Staphylococcus aureus [14])?
Answer: The MIC was greater than 128 µg/mL.

Question: And the MIC (Staphylococcus aureus [15])?
Answer: The MIC was 4 µg/mL (≈ 5.58 µM).

Question: And the MIC (Staphylococcus aureus [16])?
Answer: The MIC was 4 µg/mL (≈ 5.58 µM).

Question: What about the MIC (Staphylococcus capitis) of the same compound?
Answer: The MIC was 0.5 µg/mL (≈ 0.698 µM).

Question: What about the MIC [17] of the same compound?
Answer: Its MIC is 1 µg/mL (≈ 1.4 µM).

Question: What about the MIC [18] of the same compound?
Answer: Its MIC is 64 µg/mL (≈ 89.3 µM).

Question: And the MIC [19]?
Answer: The MIC was 0.5 µg/mL (≈ 0.698 µM).

Question: And the MIC [20]?
Answer: Its MIC is 16 µg/mL (≈ 22.3 µM).

Question: What about the MIC [21] of the same compound?
Answer: The MIC was 1 µg/mL (≈ 1.4 µM).

Question: What about the MIC (Staphylococcus warneri) of the same compound?
Answer: The MIC was 0.25 µg/mL (≈ 0.349 µM).

Question: With `NC[C@@H]1O[C@H](O[C@H]2[C@@H](O)[C@H](O[C@@H]3[C@@H](O)[C@H](N)C[C@H](N)[C@H]3O[C@H]3O[C@H](CO)CC[C@H]3N)O[C@@H]2CO)[C@H](N)[C@@H](O)[C@@H]1O` as the compound, how does the MIC (Escherichia coli [1]) read?
Answer: Its MIC is 20 µg/mL (≈ 34.3 µM).

Question: What about the MIC (Staphylococcus aureus [2]) of the same compound?
Answer: Its MIC is 5 µg/mL (≈ 8.57 µM).

Question: For `NCC[C@H](O)C(=O)N[C@@H]1C[C@H](N)[C@@H](O[C@H]2O[C@H](CN)[C@@H](O)[C@H](O)[C@H]2N)[C@H](O[C@@H]2O[C@H](CO)[C@@H](O[C@H]3O[C@@H](CN)[C@@H](O)[C@H](O)[C@H]3N)[C@H]2O)[C@H]1O`, which MIC (Escherichia coli [1]) is on record?
Answer: Its MIC is 2.5 µg/mL (≈ 3.49 µM).

Question: And the MIC (Staphylococcus aureus [2])?
Answer: The MIC was 2.5 µg/mL (≈ 3.49 µM).

Question: `NCC[C@@H](O)C(=O)N[C@H]1C[C@H](N)[C@@H](O[C@H]2O[C@H](CO)[C@@H](O)[C@H](O)[C@H]2N)[C@@H](O[C@H]2O[C@H](CO)[C@@H](O[C@H]3O[C@@H](CN)[C@@H](O)[C@H](O)[C@H]3N)[C@H]2OCCNCCc2ccccc2)[C@H]1O` was tested. Which MIC (Escherichia coli [1]) did it give?
Answer: The MIC was 2 µg/mL (≈ 2.31 µM).

Question: And the MIC (Staphylococcus aureus [2])?
Answer: The MIC was 0.6 µg/mL (≈ 0.694 µM).

Question: What about the MIC (Escherichia coli [3]) of the same compound?
Answer: Its MIC is 1 µg/mL (≈ 1.16 µM).

Question: And the MIC (Escherichia coli [4])?
Answer: The MIC was 4 µg/mL (≈ 4.63 µM).

Question: What about the MIC (Escherichia coli [5]) of the same compound?
Answer: The MIC was 1 µg/mL (≈ 1.16 µM).

Question: What about the MIC (Escherichia coli [6]) of the same compound?
Answer: The MIC was 2 µg/mL (≈ 2.31 µM).

Question: And the MIC (Escherichia coli [7])?
Answer: The MIC was 8 µg/mL (≈ 9.26 µM).

Question: What about the MIC (Escherichia coli [8]) of the same compound?
Answer: Its MIC is 2 µg/mL (≈ 2.31 µM).

Question: What about the MIC (Staphylococcus aureus [9]) of the same compound?
Answer: The MIC was 0.25 µg/mL (≈ 0.289 µM).

Question: And the MIC (Staphylococcus aureus [10])?
Answer: The MIC was 64 µg/mL (≈ 74.1 µM).

Question: What about the MIC (Staphylococcus aureus [11]) of the same compound?
Answer: Its MIC is 128 µg/mL (≈ 148 µM).

Question: And the MIC (Staphylococcus aureus [12])?
Answer: Its MIC is 32 µg/mL (≈ 37 µM).

Question: What about the MIC (Staphylococcus aureus [13]) of the same compound?
Answer: Its MIC is 128 µg/mL (≈ 148 µM).

Question: And the MIC (Staphylococcus aureus [14])?
Answer: Its MIC is greater than 128 µg/mL.

Question: What about the MIC (Staphylococcus aureus [15]) of the same compound?
Answer: Its MIC is less than 0.12 µg/mL.

Question: And the MIC (Staphylococcus aureus [16])?
Answer: The MIC was less than 0.12 µg/mL.

Question: And the MIC (Staphylococcus capitis)?
Answer: Its MIC is less than 0.12 µg/mL.

Question: And the MIC [17]?
Answer: Its MIC is less than 0.12 µg/mL.

Question: And the MIC [18]?
Answer: The MIC was 16 µg/mL (≈ 18.5 µM).

Question: And the MIC [19]?
Answer: Its MIC is less than 0.12 µg/mL.

Question: And the MIC [20]?
Answer: Its MIC is less than 0.12 µg/mL.

Question: What about the MIC [21] of the same compound?
Answer: Its MIC is less than 0.12 µg/mL.

Question: What about the MIC (Staphylococcus warneri) of the same compound?
Answer: Its MIC is less than 0.12 µg/mL.

Question: Which MIC (Escherichia coli [1]) does the source give for `NC[C@@H]1O[C@H](O[C@H]2[C@@H](OCCNCCc3ccccc3)[C@@H](O[C@H]3[C@@H](O)[C@@H](N)C[C@@H](N)[C@H]3O[C@H]3O[C@H](CO)CC[C@H]3N)O[C@@H]2CO)[C@H](N)[C@@H](O)[C@@H]1O` here?
Answer: The MIC was 40 µg/mL (≈ 54.7 µM).

Question: What about the MIC (Staphylococcus aureus [2]) of the same compound?
Answer: Its MIC is 1 µg/mL (≈ 1.37 µM).
